Results published in patent US7750003B2, “Compounds-943” (AstraZeneca AB, priority 2006, dated 2010).
pIC50: −log10 of the molar value. Where two headings read alike, the source gives them in different places.

Tested on: phosphorylation of Serine 473 in Akt in MDA-MB-468 human breast adenocarcinoma cells
Assay: In vitro phospho-Ser473 Akt assay (Test (c))
Format: cell-based
Conditions: MDA-MB-468 cells, 2 hours incubation, read-out: Test (c): IC50 versus Serine 473 in Akt
Protocol: (c) In Vitro Phospho-Ser473 Akt Assay
This assay determines the ability of test compounds to inhibit phosphorylation of Serine 473 in Akt as assessed using Acumen Explorer technology (Acumen Bioscience Limited), a plate reader that can be used to rapidly quantitate features of images generated by laser-scanning.
A MDA-MB-468 human breast adenocarcinoma cell line (LGC Promochem, Teddington, Middlesex, UK, Catalogue No. HTB-132) was routinely maintained at 37° C. with 5% CO2 up to a confluency of 70-90% in DMEM containing 10% heat-inactivated FCS and 1% L-glutamine.
For the assay, the cells were detached from the culture flask using ‘Accutase’ (Innovative Cell Technologies Inc., San Diego, Calif., USA; Catalogue No. AT104) using standard tissue culture methods and resuspended in media to give 1.7×10^5 cells per mL. Aliquots (90 μl) were seeded into each of the inner 60 wells of a black Packard 96 well plate (PerkinElmer, Boston, Mass., USA; Catalogue No. 6005182) to give a density of 15000 cells per well. Aliquots (90 μl) of culture media were placed in the outer wells to prevent edge effects. The cells were incubated overnight at 37° C. with 5% CO2 to allow them to adhere.
On day 2, the cells were treated with test compounds and incubated for 2 hours at 37° C. with 5% CO2. Test compounds were prepared as 10 mM stock solutions in DMSO and serially diluted as required with growth media to give a range of concentrations that were 10-fold the required final test concentrations. Aliquots (10 μl) of each compound dilution were placed in a well (in triplicate) to give the final required concentrations. As a minimum response control, each plate contained wells having a final concentration of 100 μM LY294002 (Calbiochem, Beeston, UK, Catalogue No. 440202). As a maximum response control, wells contained 1% DMSO instead of test compound. Following incubation, the contents of the plates were fixed by treatment with a 1.6% aqueous formaldehyde solution (Sigma, Poole, Dorset, UK, Catalogue No. F1635) at room temperature for 1 hour.
All subsequent aspiration and wash steps were carried out using a Tecan 96 well plate washer (aspiration speed 10 mm/sec). The fixing solution was removed and the contents of the plates were washed with phosphate-buffered saline (PBS; 50 μl; Gibco, Catalogue No. 10010015). The contents of the plates were treated for 10 minutes at room temperature with an aliquot (50 μl) of a cell permeabilisation buffer consisting of a mixture of PBS and 0.5% Tween-20. The ‘permeabilisation’ buffer was removed and non-specific binding sites were blocked by treatment for 1 hour at room temperature of an aliquot (50 μl) of a blocking buffer consisting of 5% dried skimmed milk [‘Marvel’ (registered trade mark); Premier Beverages, Stafford, GB] in a mixture of PBS and 0.05% Tween-20. The ‘blocking’ buffer was removed and the cells were incubated for 1 hour at room temperature with rabbit anti phospho-Akt (Ser473) antibody solution (50 μl per well; Cell Signalling, Hitchin, Herts, U.K., Catalogue No 9277) that had been diluted 1:500 in ‘blocking’ buffer. Cells were washed three times in a mixture of PBS and 0.05% Tween-20. Subsequently, cells were incubated for 1 hour at room temperature with Alexafluor488 labelled goat anti-rabbit IgG (50 μl per well; Molecular Probes, Invitrogen Limited, Paisley, UK, Catalogue No. A11008) that had been diluted 1:500 in ‘blocking’ buffer. Cells were washed 3 times with a mixture of PBS and 0.05% Tween-20. An aliquot of PBS (50 μl) was added to each well and the plates were sealed with black plate sealers and the fluorescence signal was detected and analysed.
Fluorescence dose response data obtained with each compound were analysed and the degree of inhibition of Serine 473 in Akt was expressed as an IC50 value.

Molecule	pIC50	pIC50 (Homo sapiens, MDA-MB-468, 2 h)
1-[4-[4-[(3S)-3-methylmorpholin- 4-yl]-6-(2-propan-2- yl]phenyl]-3-pyridin-2-yl-urea [Example 60u]	6.80	
C[C@H]1COCCN1c1cc(CS(C)(=O)=O)nc(-c2ccc(NC(=O)Nc3cccc(=O)[nH]3)cc2)n1 [Example 22c, 1-[4-[4-[(3S)-3-methylmorpholin-4-yl]-6-(methylsulfonylmethyl)pyrimidin-2-yl]phenyl]-3-(6-oxo-1H-pyridin-2-yl)urea]		6.68
CCNC(=O)Nc1ncc(-c2nc(N3CCOC[C@@H]3C)cc(C(C)(C)S(C)(=O)=O)n2)cn1 [Example 24af, 1-ethyl-3-[5-[4-[(3S)-3-methylmorpholin-4-yl]-6-(2-methylsulfonylpropan-2-yl)pyrimidin-2-yl]pyrimidin-2-yl]urea]		5.85
C[C@H]1COCCN1c1cc(C(C)(C)S(C)(=O)=O)nc(-c2cnc(NC(=O)NC3CC3)nc2)n1 [Example 24ag, 3-cyclopropyl-1-[5-[4-[(3S)-3-methylmorpholin-4-yl]-6-(2-methylsulfonylpropan-2-yl)pyrimidin-2-yl]pyrimidin-2-yl]urea]		6.49
CNC(=O)Nc1ccc(-c2nc(N3CCOC[C@@H]3C)cc(C(C)(C)S(C)(=O)=O)n2)cn1 [Example 24ah, 3-methyl-1-[5-[4-[(3S)-3-methylmorpholin-4-yl]-6-(2-methylsulfonylpropan-2-yl)pyrimidin-2-yl]pyridin-2-yl]urea]		6.29
CCNC(=O)Nc1ccc(-c2nc(N3CCOC[C@@H]3C)cc(C(C)(C)S(C)(=O)=O)n2)cn1 [Example 24ai, 1-ethyl-3-[5-[4-[(3S)-3-methylmorpholin-4-yl]-6-(2-methylsulfonylpropan-2-yl)pyrimidin-2-yl]pyridin-2-yl]urea]		6.59
C[C@H]1COCCN1c1cc(C(C)(C)S(C)(=O)=O)nc(-c2ccc(NC(=O)NC3CC3)nc2)n1 [Example 24aj, 3-cyclopropyl-1-[5-[4-[(3S)-3-methylmorpholin-4-yl]-6-(2-methylsulfonylpropan-2-yl)pyrimidin-2-yl]pyridin-2-yl]urea]		6.35
CCCNC(=O)Nc1ccc(-c2nc(N3CCOC[C@@H]3C)cc(C(C)(C)S(C)(=O)=O)n2)cc1 [Example 24ak, 3-[4-[4-[(3S)-3-methylmorpholin-4-yl]-6-(2-methylsulfonylpropan-2-yl)pyrimidin-2-yl]phenyl]-1-propyl-urea]		6.68
CC(C)NC(=O)Nc1ccc(-c2nc(N3CCOC[C@@H]3C)cc(C(C)(C)S(C)(=O)=O)n2)cc1 [Example 24al, 1-[4-[4-[(3S)-3-methylmorpholin-4-yl]-6-(2-methylsulfonylpropan-2-yl)pyrimidin-2-yl]phenyl]-3-propan-2-yl-urea]		7.42
C[C@H]1COCCN1c1cc(C(C)(C)S(C)(=O)=O)nc(-c2ccc(NC(=O)NC3CCC3)cc2)n1 [Example 24am, 3-cyclobutyl-1-[4-[4-[(3S)-3-methylmorpholin-4-yl]-6-(2-methylsulfonylpropan-2-yl)pyrimidin-2-yl]phenyl]urea]		6.68
C[C@H]1COCCN1c1cc(C(C)(C)S(C)(=O)=O)nc(-c2ccc(NC(=O)NC(C)(C)CO)cc2)n1 [Example 24an, 3-(1-hydroxy-2-methyl-propan-2-yl)-1-[4-[4-[(3S)-3-methylmorpholin-4-yl]-6-(2-methylsulfonylpropan-2-yl)pyrimidin-2-yl]phenyl]urea]		5.74
C[C@H]1COCCN1c1cc(C(C)(C)S(C)(=O)=O)nc(-c2ccc(NC(=O)NCc3cccnc3)cc2)n1 [Example 24ao, 1-[4-[4-[(3S)-3-methylmorpholin-4-yl]-6-(2-methylsulfonylpropan-2-yl)pyrimidin-2-yl]phenyl]-3-(pyridin-3-ylmethyl)urea]		6.62
C[C@H](CO)NC(=O)Nc1ccc(-c2nc(N3CCOC[C@@H]3C)cc(C(C)(C)S(C)(=O)=O)n2)cc1 [Example 24ap, 3-[(2R)-1-hydroxypropan-2-yl]-1-[4-[4-[(3S)-3-methylmorpholin-4-yl]-6-(2-methylsulfonylpropan-2-yl)pyrimidin-2-yl]phenyl]urea]		7.11
C[C@H]1COCCN1c1cc(C(C)(C)S(C)(=O)=O)nc(-c2ccc(NC(=O)NCC3CC3)cc2)n1 [Example 24aq, 3-(cyclopropylmethyl)-1-[4-[4-[(3S)-3-methylmorpholin-4-yl]-6-(2-methylsulfonylpropan-2-yl)pyrimidin-2-yl]phenyl]urea]		5.70
C[C@H]1COCCN1c1cc(C(C)(C)S(C)(=O)=O)nc(-c2ccc(NC(=O)NCc3ccncc3)cc2)n1 [Example 24ar, 1-[4-[4-[(3S)-3-methylmorpholin-4-yl]-6-(2-methylsulfonylpropan-2-yl)pyrimidin-2-yl]phenyl]-3-(pyridin-4-ylmethyl)urea]		7.31
C[C@H]1COCCN1c1cc(C(C)(C)S(C)(=O)=O)nc(-c2ccc(NC(=O)NCCCO)cc2)n1 [Example 24as, 3-(3-hydroxypropyl)-1-[4-[4-[(3S)-3-methylmorpholin-4-yl]-6-(2-methylsulfonylpropan-2-yl)pyrimidin-2-yl]phenyl]urea]		6.66
CC(C)CNC(=O)Nc1ccc(-c2nc(N3CCOC[C@@H]3C)cc(C(C)(C)S(C)(=O)=O)n2)cc1 [Example 24at, 1-[4-[4-[(3S)-3-methylmorpholin-4-yl]-6-(2-methylsulfonylpropan-2-yl)pyrimidin-2-yl]phenyl]-3-(2-methylpropyl)urea]		7.05
C[C@H]1COCCN1c1cc(C(C)(C)S(C)(=O)=O)nc(-c2ccc(NC(=O)NCc3ncc[nH]3)cc2)n1 [Example 24au, 3-(1H-imidazol-2-ylmethyl)-1-[4-[4-[(3S)-3-methylmorpholin-4-yl]-6-(2-methylsulfonylpropan-2-yl)pyrimidin-2-yl]phenyl]urea]		5.62
C[C@H]1COCCN1c1cc(C(C)(C)S(C)(=O)=O)nc(-c2ccc(NC(=O)NCc3cnn(C)c3)cc2)n1 [Example 24av, 1-[4-[4-[(3S)-3-methylmorpholin-4-yl]-6-(2-methylsulfonylpropan-2-yl)pyrimidin-2-yl]phenyl]-3-[(1-methylpyrazol-4-yl)methyl]urea]		5.31
Cc1cc(CNC(=O)Nc2ccc(-c3nc(N4CCOC[C@@H]4C)cc(C(C)(C)S(C)(=O)=O)n3)cc2)no1 [Example 24aw, 3-[4-[4-[(3S)-3-methylmorpholin-4-yl]-6-(2-methylsulfonylpropan-2-yl)pyrimidin-2-yl]phenyl]-1-[(5-methyl-1,2-oxazol-3-yl)methyl]urea]		5.47
CC(NC(=O)Nc1ccc(-c2nc(N3CCOC[C@@H]3C)cc(C(C)(C)S(C)(=O)=O)n2)cc1)c1cccnc1 (stereo partly drawn) [Example 24ax, 1-[4-[4-[(3S)-3-methylmorpholin-4-yl]-6-(2-methylsulfonylpropan-2-yl)pyrimidin-2-yl]phenyl]-3-(1-pyridin-3-ylethyl)urea]		6.19
C[C@H]1COCCN1c1cc(C(C)(C)S(C)(=O)=O)nc(-c2ccc(NC(=O)NCc3cc[nH]n3)cc2)n1 [Example 24ay, 1-[4-[4-[(3S)-3-methylmorpholin-4-yl]-6-(2-methylsulfonylpropan-2-yl)pyrimidin-2-yl]phenyl]-3-(1H-pyrazol-3-ylmethyl)urea]		5.10
C[C@H]1COCCN1c1cc(C(C)(C)S(C)(=O)=O)nc(-c2ccc(NC(=O)NCc3ccn(C)n3)cc2)n1 [Example 24az, 1-[4-[4-[(3S)-3-methylmorpholin-4-yl]-6-(2-methylsulfonylpropan-2-yl)pyrimidin-2-yl]phenyl]-3-[(1-methylpyrazol-3-yl)methyl]urea]		5.25
